From patent US12043632B2, “6-heteroaryloxy benzimidazoles and azabenzimidazoles as JAK2 inhibitors” (Ajax Therapeutics, Inc., priority 2020, dated 2024)

What follows are compounds tested against T1, JAK2 (JH1domain-catalytic, Y1007F,Y1008F) kinase (Homo sapiens, UniProt O60674, Y1007F/Y1008F) (assay: JAK2 JH1 Domain Binding Assay). Conditions: qPCR readout.
T1 construct: JAK2 (JH1domain-catalytic, Y1007F,Y1008F) kinase was expressed as N-terminal fusion; made in house; host or cells: transiently transfected HEK293 cells
T1 sequence (O60674 849-1124 Y1007F/Y1008F limits assumed): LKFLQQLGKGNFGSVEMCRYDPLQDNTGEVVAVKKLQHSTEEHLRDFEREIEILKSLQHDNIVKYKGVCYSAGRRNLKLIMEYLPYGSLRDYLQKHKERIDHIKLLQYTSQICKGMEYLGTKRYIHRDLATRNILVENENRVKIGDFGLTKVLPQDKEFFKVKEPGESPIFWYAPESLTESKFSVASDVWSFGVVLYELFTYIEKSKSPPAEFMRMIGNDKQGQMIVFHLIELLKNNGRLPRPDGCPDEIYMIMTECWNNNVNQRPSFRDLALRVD

Structure (SMILES)	Kd [nM]
CN1CC[C@@H](n2nc(Nc3nc4ncc(Oc5cnc6scnc6c5)c(Cl)c4n3C)cc2C(C)(C)C)C1 [Example I-27, (R)—N-(5-(tert-butyl)-1-(1-methylpyrrolidin-3-yl)-1H-pyrazol-3-yl)-7-chloro-1-methyl-6-(thiazolo[5,4-b]pyridin-6-yloxy)-1H-imidazo[4,5-b]pyridin-2-amine]	10 to 50
Cn1c(Nc2cc(C(F)(F)F)cn([C@H]3C[C@H](O)C3)c2=O)nc2ncc(Oc3cnn4cccc(F)c34)c(Cl)c21 [Example I-295, trans-3-((7-chloro-6-((4-fluoropyrazolo[1,5-a]pyridin-3-yl)oxy)-1-methyl-1H-imidazo[4,5-b]pyridin-2-yl)amino)-1-(3-hydroxycyclobutyl)-5-(trifluoromethyl)pyridin-2(1H)-one]	10 to 50
CNc1nccn2ncc(Oc3cnc4nc(Nc5cc(C(F)(F)F)n([C@@H]6CCOC6)n5)n(C)c4c3Cl)c12 [Example I-276, (R)-7-chloro-1-methyl-6-((4-(methylamino)pyrazolo[1,5-a]pyrazin-3-yl)oxy)-N-(1-(tetrahydrofuran-3-yl)-5-(trifluoromethyl)-1H-pyrazol-3-yl)-1H-imidazo[4,5-b]pyridin-2-amine]	10 to 50
CNc1nccn2ncc(Oc3cnc4nc(Nc5cc(OC[C@@H]6CCCN6C)cc(C(F)(F)F)c5)n(C)c4c3Cl)c12 [Example I-241, (S)-7-chloro-1-methyl-6-((4-(methylamino)pyrazolo[1,5-a]pyrazin-3-yl)oxy)-N-(3-((1-methylpyrrolidin-2-yl)methoxy)-5-(trifluoromethyl)phenyl)-1H-imidazo[4,5-b]pyridin-2-amine]	< 10
Cn1c(F)c(C2CC2)cc(Nc2nc3ncc(Oc4cnn5ccncc45)c(Cl)c3n2C)c1=O [Example I-266, 3-((7-chloro-1-methyl-6-(pyrazolo[1,5-a]pyrazin-3-yloxy)-1H-imidazo[4,5-b]pyridin-2-yl)amino)-5-cyclopropyl-6-fluoro-1-methylpyridin-2(1H)-one]	< 10
COc1cn2ncc(Oc3cnc4nc(Nc5cc(C(F)(F)F)cn(C)c5=O)n(C)c4c3Cl)c2cn1 [Example I-363, 3-((7-chloro-6-((6-methoxypyrazolo[1,5-a]pyrazin-3-yl)oxy)-1-methyl-1H-imidazo[4,5-b]pyridin-2-yl)amino)-1-methyl-5-(trifluoromethyl)pyridin-2(1H)-one]	10 to 50
CNc1nccn2ncc(Oc3cnc4nc(Nc5cc(C6CCCN6C)cc(C(F)(F)F)c5)n(C)c4c3Cl)c12 (single isomer, unassigned) [Example I-269-b]	10 to 50
Cn1c(Nc2cc(C(F)(F)F)cn([C@H]3C[C@H](O)C3)c2=O)nc2ncc(Oc3cnn4cccc(F)c34)c(C#N)c21 [Example I-297, trans-6-((4-fluoropyrazolo[1,5-a]pyridin-3-yl)oxy)-2-((1-(3-hydroxycyclobutyl)-2-oxo-5-(trifluoromethyl)-1,2-dihydropyridin-3-yl)amino)-1-methyl-1H-imidazo[4,5-b]pyridine-7-carbonitrile]	< 10
CC(=O)N1CC2(CC(n3nc(Nc4nc5ncc(Oc6cnn7ccccc67)c(Cl)c5n4C)cc3C(F)(F)F)C2)C1 [Example I-278, 1-(6-(3-((7-chloro-1-methyl-6-(pyrazolo[1,5-a]pyridin-3-yloxy)-1H-imidazo[4,5-b]pyridin-2-yl)amino)-5-(trifluoromethyl)-1H-pyrazol-1-yl)-2-azaspiro[3.3]heptan-2-yl)ethan-1-one]	< 10
COc1nccn2ncc(Oc3cnc4nc(Nc5cc(C(F)(F)F)cn(C)c5=O)n(C)c4c3Cl)c12 [Example I-224, 3-((7-chloro-6-((4-methoxypyrazolo[1,5-a]pyrazin-3-yl)oxy)-1-methyl-1H-imidazo[4,5-b]pyridin-2-yl)amino)-1-methyl-5-(trifluoromethyl)pyridin-2(1H)-one]	< 10
Cn1c(Nc2nc([C@@H]3CCOC3)c(C(C)(C)C)s2)nc2ncc(Oc3cnn4ccnc4c3)c(Cl)c21 (single isomer, unassigned) [Example I-56-b]	10 to 50
CCn1c(C(C)(C)C)ncc(Nc2nc3ncc(Oc4cnn5ccncc45)c(Cl)c3n2C)c1=O [Example I-164, 2-(tert-butyl)-5-((7-chloro-1-methyl-6-(pyrazolo[1,5-a]pyrazin-3-yloxy)-1H-imidazo[4,5-b]pyridin-2-yl)amino)-3-ethylpyrimidin-4(3H)-one]	10 to 50
Cn1c(Nc2nn3c(c2F)COC(C)(C)C3)nc2ncc(Oc3cnn4ccncc34)c(Cl)c21 [Example I-232, N-(7-chloro-1-methyl-6-(pyrazolo[1,5-a]pyrazin-3-yloxy)-1H-imidazo[4,5-b]pyridin-2-yl)-3-fluoro-6,6-dimethyl-6,7-dihydro-4H-pyrazolo[5,1-c][1,4]oxazin-2-amine]	< 10
Cn1c(Nc2cc(C3CC3)nn([C@@H]3CCOC3)c2=O)nc2ncc(Oc3cnn4ccccc34)c(Cl)c21 [Example I-142, (R)-4-((7-chloro-1-methyl-6-(pyrazolo[1,5-a]pyridin-3-yloxy)-1H-imidazo[4,5-b]pyridin-2-yl)amino)-6-cyclopropyl-2-(tetrahydrofuran-3-yl)pyridazin-3(2H)-one]	< 10
Cn1cc(C2CC2)cc(Nc2nc3ncc(Oc4cnn5ccnc(O[C@@H]6CC[C@H]6O)c45)c(Cl)c3n2C)c1=O (single isomer, unassigned) [Example I-133-a]	< 10
CNc1nccn2ncc(Oc3cnc4nc(Nc5cc(C6CCCN6C)cc(C(F)(F)F)c5)n(C)c4c3Cl)c12 (single isomer, unassigned) [Example I-269-a]	10 to 50
CNc1cn2ncc(Oc3cnc4nc(Nc5cc(CN(C)C)cc(C(F)(F)F)c5)n(C)c4c3Cl)c2cn1 [Example I-327, 7-chloro-N-(3-((dimethylamino)methyl)-5-(trifluoromethyl)phenyl)-1-methyl-6-((6-(methylamino)pyrazolo[1,5-a]pyrazin-3-yl)oxy)-1H-imidazo[4,5-b]pyridin-2-amine]	10 to 50
Cn1c(Nc2cc(C3CC3)cn([C@H]3C[C@@H](C#N)C3)c2=O)nc2ncc(Oc3cnn4ccncc34)c(Cl)c21 [Example I-80, cis-3-(3-((7-chloro-1-methyl-6-(pyrazolo[1,5-a]pyrazin-3-yloxy)-1H-imidazo[4,5-b]pyridin-2-yl)amino)-5-cyclopropyl-2-oxopyridin-1(2H)-yl)cyclobutane-1-carbonitrile]	< 10
Cc1nc(Nc2nc3ncc(Oc4cnn5ccncc45)c(Cl)c3n2C)nc(C)c1N1CCC1 [Example I-268, N-(5-(azetidin-1-yl)-4,6-dimethylpyrimidin-2-yl)-7-chloro-1-methyl-6-(pyrazolo[1,5-a]pyrazin-3-yloxy)-1H-imidazo[4,5-b]pyridin-2-amine]	50 to 1000
CNc1nccn2ncc(Oc3cnc4nc(Nc5ccc(CN6CC(F)C6)c(C(F)(F)F)c5)n(C)c4c3Cl)c12 [Example I-189, 7-chloro-N-(4-((3-fluoroazetidin-1-yl)methyl)-3-(trifluoromethyl)phenyl)-1-methyl-6-((4-(methylamino)pyrazolo[1,5-a]pyrazin-3-yl)oxy)-1H-imidazo[4,5-b]pyridin-2-amine]	10 to 50
Cn1c(Nc2cc(C3CC3)cn(CCCN3CCC(F)(F)C3)c2=O)nc2ncc(Oc3cnn4ccncc34)c(Cl)c21 [Example I-117, 3-((7-chloro-1-methyl-6-(pyrazolo[1,5-a]pyrazin-3-yloxy)-1H-imidazo[4,5-b]pyridin-2-yl)amino)-5-cyclopropyl-1-(3-(3,3-difluoropyrrolidin-1-yl)propyl)pyridin-2(1H)-one]	< 10
CNc1cn2ncc(Oc3cnc4nc(Nc5cc(C(C)(C)C)n([C@H]6CCN(C)C6)n5)n(C)c4c3Cl)c2cn1 [Example I-346, (S)—N-(5-(tert-butyl)-1-(1-methylpyrrolidin-3-yl)-1H-pyrazol-3-yl)-7-chloro-1-methyl-6-((6-(methylamino)pyrazolo[1,5-a]pyrazin-3-yl)oxy)-1H-imidazo[4,5-b]pyridin-2-amine]	10 to 50
Cn1c(Nc2cc(C(F)(F)F)cn(CCO)c2=O)nc2ncc(Oc3cnn4ccnc(N5CCOCC5)c34)c(Cl)c21 [Example I-140, 3-((7-chloro-1-methyl-6-((4-morpholinopyrazolo[1,5-a]pyrazin-3-yl)oxy)-1H-imidazo[4,5-b]pyridin-2-yl)amino)-1-(2-hydroxyethyl)-5-(trifluoromethyl)pyridin-2(1H)-one]	10 to 50
CNc1nccn2ncc(Oc3cnc4nc(Nc5cc(C(F)(F)F)cn(-c6cccnc6)c5=O)n(C)c4c3Cl)c12 [Example I-179, 3-((7-chloro-1-methyl-6-((4-(methylamino)pyrazolo[1,5-a]pyrazin-3-yl)oxy)-1H-imidazo[4,5-b]pyridin-2-yl)amino)-5-(trifluoromethyl)-2H-[1,3′-bipyridin]-2-one]	< 10
Cn1c(Nc2cc(C(C)(C)C)n([C@H]3CCO[C@@H]3CO)n2)nc2ncc(Oc3cnc4ccnn4c3)c(Cl)c21 [Example I-82, ((2S,3S)-3-(5-(tert-butyl)-3-((7-chloro-1-methyl-6-(pyrazolo[1,5-a]pyrimidin-6-yloxy)-1H-imidazo[4,5-b]pyridin-2-yl)amino)-1H-pyrazol-1-yl)tetrahydrofuran-2-yl)methanol]	10 to 50
Cn1c(Nc2cc(C(C)(C)C)n(CC(F)F)n2)nc2ncc(Oc3cnn4ccncc34)c(Cl)c21 [Example I-34, N-(5-(tert-butyl)-1-(2,2-difluoroethyl)-1H-pyrazol-3-yl)-7-chloro-1-methyl-6-(pyrazolo[1,5-a]pyrazin-3-yloxy)-1H-imidazo[4,5-b]pyridin-2-amine]	< 10
CNc1cn2ncc(Oc3cnc4nc(Nc5cc(O[C@H]6CCN(C)C6)cc(C(F)(F)F)c5)n(C)c4c3Cl)c2cn1 [Example I-314, (S)-7-chloro-1-methyl-6-((6-(methylamino)pyrazolo[1,5-a]pyrazin-3-yl)oxy)-N-(3-((1-methylpyrrolidin-3-yl)oxy)-5-(trifluoromethyl)phenyl)-1H-imidazo[4,5-b]pyridin-2-amine]	< 10
